In BindingDB's records for patent US10774052 (Celgene CAR LLC; Sanofi, 2020):

Molecular target: Fibroblast growth factor receptor 4 (Homo sapiens, UniProt P22455)
Assay: Omnia Assay Protocol for Potency Assessment Against (method a)
Description: A solution of 1.4×ATP (AS001A) and 5× Tyr-Sox conjugated peptide substrate (KNZ3101) were prepared in 1× kinase reaction buffer consisting of 20 mM Tris, pH 7.5, 5 mM MgCl2, 1 mM EGTA, 5 mM β-glycerophosphate, 5% glycerol (10× stock, KB002A) and 0.2 mM DTT (DS001A). […] The serially diluted compounds were prepared on a Tecan EV0100. A second addition of 10 μl of Tyr-Sox FGFR4 substrate was added to each well and the kinase reactions were started with the addition of 35 μL of 1.4×ATP. The reactions were monitored every 71 seconds for 240 minutes at λex360/λem485 in a Synergy plate reader from BioTek (Winooski, Vt.).

Chain of Fibroblast growth factor receptor 4 (P22455 whole entry): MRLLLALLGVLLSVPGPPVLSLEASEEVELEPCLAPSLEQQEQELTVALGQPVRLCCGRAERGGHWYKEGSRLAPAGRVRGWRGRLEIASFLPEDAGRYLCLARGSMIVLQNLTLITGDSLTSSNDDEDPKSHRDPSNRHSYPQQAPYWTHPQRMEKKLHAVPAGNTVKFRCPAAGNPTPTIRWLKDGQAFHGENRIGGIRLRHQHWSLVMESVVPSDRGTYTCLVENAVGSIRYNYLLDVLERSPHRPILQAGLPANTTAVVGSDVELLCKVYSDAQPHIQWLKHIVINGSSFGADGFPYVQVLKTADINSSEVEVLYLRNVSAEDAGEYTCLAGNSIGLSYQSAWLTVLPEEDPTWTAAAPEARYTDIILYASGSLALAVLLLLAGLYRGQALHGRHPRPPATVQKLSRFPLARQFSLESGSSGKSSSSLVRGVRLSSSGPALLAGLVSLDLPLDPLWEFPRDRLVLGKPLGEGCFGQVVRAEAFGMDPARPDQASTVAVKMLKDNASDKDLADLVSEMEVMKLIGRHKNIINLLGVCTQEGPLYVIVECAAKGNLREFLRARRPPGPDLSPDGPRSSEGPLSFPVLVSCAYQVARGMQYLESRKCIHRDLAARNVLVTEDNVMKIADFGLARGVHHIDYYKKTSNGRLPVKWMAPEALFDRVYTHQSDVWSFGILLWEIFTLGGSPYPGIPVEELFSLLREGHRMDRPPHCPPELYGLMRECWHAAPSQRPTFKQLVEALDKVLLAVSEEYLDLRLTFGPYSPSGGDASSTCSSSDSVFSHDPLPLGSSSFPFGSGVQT

For C=CC(=O)Nc1cc(C2=CCN(CC)CC2)ccc1Nc1ncc2c(n1)N(CC)C(=O)N(c1cc(OC)cc(OC)c1)C2 [US10774052, Compound I-56], the IC50 was less than 100 nM.
